The source made the active and inactive calls. The rule behind the calls is not given here.
Legend:
[1] = target: Amyloid-beta precursor protein (Homo sapiens) (UniProt P05067); assay: Inhibition of amyloid beta (1 to 42) (unknown origin) self-induced aggregation at 20 uM after 46 to 48 hrs by thioflavin-T based fluorometric assay
[2] = Retention time of the compound using CH3OH/H2O (0.1% Formic acid), 60% (v/v) of CH3OH gradient by HPLC analysis; type: physicochemical
Acetylcholinesterase [3] = target: Acetylcholinesterase (Electrophorus electricus, UniProt O42275)
Description: Inhibition of electric eel AChE using acetylthiocholine iodide as substrate incubated for 6 mins by spectrophotometric method

Cholinesterase = Cholinesterase (Equus caballus, UniProt P81908)
Description: Inhibition of equine serum BChE using S-butyrylthiocholine chloride as substrate incubated for 6 mins by spectrophotometric method

Acetylcholinesterase [4] = target: Acetylcholinesterase (Homo sapiens, UniProt P22303)
Description: Inhibition of human AChE using acetylthiocholine iodide as substrate incubated for 6 mins by spectrophotometric method

PC-12 = assay: Neuroprotective activity against H2O2-induced oxidative damage in rat PC12 cells assessed as increase in cell viability at 0.4 to 10 uM after 24 hrs by MTT assay; type: functional, cell-based
[5] = Retention time of the compound using CH3OH/H2O(0.1% Formic acid), 45% (v/v) of CH3OH gradient by HPLC analysis; type: physicochemical
in vitro = details: PAMPA
[6] = Retention time of the compound using CH3OH/H2O(0.1% Formic acid), 75% (v/v) of CH3OH gradient by HPLC analysis; type: physicochemical
[7] = Retention time of the compound using CH3OH/H2O (0.1% Formic acid), 65% (v/v) of CH3OH gradient by HPLC analysis; type: physicochemical
[8] = Retention time of the compound using CH3OH/H2O(0.1% Formic acid), 55% (v/v) of CH3OH gradient by HPLC analysis; type: physicochemical
[9] = Retention time of the compound using CH3OH/H2O(0.1% Formic acid), 70% (v/v) of CH3OH gradient by HPLC analysis; type: physicochemical
[10] = Metal chelating activity of the compound assessed as Cu2+ complex formation at 25 uM by UV-vis spectrometry; type: physicochemical
[11] = Neuroprotective activity against H2O2-induced oxidative damage in rat PC12 cells assessed as increase in cell viability at 10 uM after 24 hrs by MTT assay; type: functional, PC-12
[12] = target: Acetylcholinesterase (Electrophorus electricus) (UniProt O42275); assay: Mixed-type of inhibition in electric eel AChE by Lineweaver-Burk plot analysis
Sequence of Acetylcholinesterase (Electrophorus electricus) (O42275 24-633 limits assumed): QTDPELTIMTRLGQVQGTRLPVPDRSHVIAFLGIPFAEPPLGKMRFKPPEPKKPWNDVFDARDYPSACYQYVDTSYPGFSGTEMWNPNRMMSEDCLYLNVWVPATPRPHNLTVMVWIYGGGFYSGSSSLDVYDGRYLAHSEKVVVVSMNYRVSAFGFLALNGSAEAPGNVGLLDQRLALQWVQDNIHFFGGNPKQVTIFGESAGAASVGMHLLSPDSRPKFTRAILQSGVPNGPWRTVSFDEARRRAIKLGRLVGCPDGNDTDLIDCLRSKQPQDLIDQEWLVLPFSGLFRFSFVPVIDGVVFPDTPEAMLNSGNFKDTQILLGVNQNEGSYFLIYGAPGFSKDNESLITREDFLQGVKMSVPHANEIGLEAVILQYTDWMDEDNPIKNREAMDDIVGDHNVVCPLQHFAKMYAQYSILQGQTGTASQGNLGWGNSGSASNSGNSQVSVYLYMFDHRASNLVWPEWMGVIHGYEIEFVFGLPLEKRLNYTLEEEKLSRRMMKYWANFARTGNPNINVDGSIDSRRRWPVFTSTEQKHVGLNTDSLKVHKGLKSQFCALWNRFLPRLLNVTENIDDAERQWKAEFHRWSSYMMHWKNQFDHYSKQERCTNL

Sequence of Acetylcholinesterase (Homo sapiens, UniProt P22303) (P22303 whole entry): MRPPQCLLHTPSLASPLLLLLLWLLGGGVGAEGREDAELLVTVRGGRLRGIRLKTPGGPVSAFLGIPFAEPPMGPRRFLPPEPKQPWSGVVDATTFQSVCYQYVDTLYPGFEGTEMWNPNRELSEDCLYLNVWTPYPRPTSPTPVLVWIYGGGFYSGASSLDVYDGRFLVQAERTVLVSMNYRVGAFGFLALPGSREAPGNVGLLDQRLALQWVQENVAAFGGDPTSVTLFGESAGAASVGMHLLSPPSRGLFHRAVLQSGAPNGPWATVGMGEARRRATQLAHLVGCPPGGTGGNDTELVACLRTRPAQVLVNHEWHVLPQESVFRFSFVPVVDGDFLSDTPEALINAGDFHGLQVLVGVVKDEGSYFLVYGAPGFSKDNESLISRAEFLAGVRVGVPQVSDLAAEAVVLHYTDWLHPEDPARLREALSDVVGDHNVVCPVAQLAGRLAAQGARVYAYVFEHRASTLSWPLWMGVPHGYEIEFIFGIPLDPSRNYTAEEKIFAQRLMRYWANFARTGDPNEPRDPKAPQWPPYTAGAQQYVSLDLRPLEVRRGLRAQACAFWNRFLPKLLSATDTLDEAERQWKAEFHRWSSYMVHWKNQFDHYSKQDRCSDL
Sequence of Amyloid-beta precursor protein (Homo sapiens) (P05067 whole entry): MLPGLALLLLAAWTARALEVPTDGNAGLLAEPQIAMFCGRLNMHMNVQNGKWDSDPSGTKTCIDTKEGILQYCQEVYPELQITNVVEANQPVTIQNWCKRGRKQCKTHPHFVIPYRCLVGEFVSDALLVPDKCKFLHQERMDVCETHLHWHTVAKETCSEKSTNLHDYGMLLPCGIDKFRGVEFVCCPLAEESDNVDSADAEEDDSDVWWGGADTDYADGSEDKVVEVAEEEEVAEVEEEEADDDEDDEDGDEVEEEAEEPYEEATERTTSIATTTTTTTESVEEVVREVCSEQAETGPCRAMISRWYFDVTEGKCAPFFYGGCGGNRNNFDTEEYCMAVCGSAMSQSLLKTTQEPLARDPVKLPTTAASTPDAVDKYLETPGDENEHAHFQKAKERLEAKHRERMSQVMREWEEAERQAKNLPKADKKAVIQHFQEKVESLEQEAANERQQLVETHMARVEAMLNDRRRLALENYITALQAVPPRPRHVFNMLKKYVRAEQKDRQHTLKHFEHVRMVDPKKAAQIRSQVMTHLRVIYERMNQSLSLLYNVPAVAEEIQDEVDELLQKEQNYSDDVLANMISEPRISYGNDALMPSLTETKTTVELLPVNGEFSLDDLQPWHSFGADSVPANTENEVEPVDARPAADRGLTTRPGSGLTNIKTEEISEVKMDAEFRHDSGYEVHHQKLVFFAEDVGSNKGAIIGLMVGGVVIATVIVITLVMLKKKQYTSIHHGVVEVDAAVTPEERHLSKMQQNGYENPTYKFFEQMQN
Sequence of Cholinesterase (P81908 whole entry): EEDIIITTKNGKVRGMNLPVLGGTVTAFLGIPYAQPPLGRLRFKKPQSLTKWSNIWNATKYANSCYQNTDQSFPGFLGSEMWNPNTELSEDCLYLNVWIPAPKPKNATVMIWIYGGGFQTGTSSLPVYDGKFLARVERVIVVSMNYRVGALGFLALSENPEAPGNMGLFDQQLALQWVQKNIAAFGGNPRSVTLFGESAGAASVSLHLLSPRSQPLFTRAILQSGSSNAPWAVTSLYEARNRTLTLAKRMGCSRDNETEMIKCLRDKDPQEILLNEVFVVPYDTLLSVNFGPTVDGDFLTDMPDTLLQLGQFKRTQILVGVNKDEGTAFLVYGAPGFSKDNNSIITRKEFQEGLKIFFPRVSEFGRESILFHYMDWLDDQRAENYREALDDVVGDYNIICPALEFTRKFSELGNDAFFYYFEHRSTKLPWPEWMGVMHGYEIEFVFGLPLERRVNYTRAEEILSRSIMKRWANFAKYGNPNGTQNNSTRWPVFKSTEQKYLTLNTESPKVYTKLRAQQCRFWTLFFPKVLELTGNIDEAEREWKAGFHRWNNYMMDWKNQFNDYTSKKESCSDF
Sequence of Acetylcholinesterase (Electrophorus electricus, UniProt O42275) (O42275 whole entry): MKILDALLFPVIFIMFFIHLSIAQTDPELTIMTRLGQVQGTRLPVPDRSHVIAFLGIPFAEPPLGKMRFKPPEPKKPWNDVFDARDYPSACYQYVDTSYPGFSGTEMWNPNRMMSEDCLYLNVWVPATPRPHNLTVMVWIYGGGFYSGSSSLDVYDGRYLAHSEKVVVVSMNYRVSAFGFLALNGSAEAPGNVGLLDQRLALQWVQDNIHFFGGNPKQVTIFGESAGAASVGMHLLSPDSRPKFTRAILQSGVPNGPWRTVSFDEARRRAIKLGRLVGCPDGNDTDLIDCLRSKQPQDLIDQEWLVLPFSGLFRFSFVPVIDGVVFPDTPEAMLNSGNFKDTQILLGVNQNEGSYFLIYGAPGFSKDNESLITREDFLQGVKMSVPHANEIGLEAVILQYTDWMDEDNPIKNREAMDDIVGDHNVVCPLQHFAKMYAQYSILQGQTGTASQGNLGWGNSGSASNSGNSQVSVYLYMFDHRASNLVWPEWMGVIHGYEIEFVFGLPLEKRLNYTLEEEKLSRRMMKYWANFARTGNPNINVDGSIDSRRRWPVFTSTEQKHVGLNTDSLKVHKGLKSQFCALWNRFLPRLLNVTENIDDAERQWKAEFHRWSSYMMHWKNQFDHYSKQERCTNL

SMILES | inhibition [1] [%] | IC50 (Acetylcholinesterase [3]) [nM] | IC50 (Cholinesterase) [nM] | IC50 (Acetylcholinesterase [4]) [nM] | Papp (in vitro) [×10⁻⁶ cm/s] | also measured
CC(=O)N[C@@H](Cc1c[nH]c2ccccc12)C(=O)NCCCCCCNc1c2c(nc3ccccc13)CCCC2 | 61.4 | 115 | 6.2 | 153 | – | Retention_time [2]: 4.642 min
CC1N[C@H](C(=O)NCCCCCCNc2c3c(nc4ccccc24)CCCC3)Cc2c1[nH]c1ccccc21 (stereo not given in full) | 48.6 | 156 | 240 | 203 | – | –
N[C@@H](Cc1c[nH]c2ccccc12)C(=O)NCCCCCCNc1c2c(nc3ccccc13)CCCC2 | 66.3 | 51.6 | 10.6 | 96.3 | 4.45 | Activity (PC-12): Active; Retention_time [5]: 5.426 min
Cc1nc(C(=O)NCCCCCCNc2c3c(nc4ccccc24)CCCC3)cc2c1[nH]c1ccccc12 | 41.5 | 40.6 | 93.6 | 92.6 | – | Retention_time [2]: 13.685 min
O=C(NCCCCCCNc1c2c(nc3ccccc13)CCCC2)c1cc2c([nH]c3ccccc32)c(-c2ccc(F)cc2)n1 | 29.7 | 230 | 205 | 306 | – | Retention_time [6]: 5.973 min
O=C(NCCCCCCNc1c2c(nc3ccccc13)CCCC2)c1cc2c(cn1)[nH]c1ccccc12 | 41.2 | 32.4 | 41.3 | 91.8 | 5.36 | Retention_time [2]: 15.899 min
O=C(NCCCCCCNc1c2c(nc3ccccc13)CCCC2)c1cc2c([nH]c3ccccc32)c(-c2ccccc2)n1 | 26.1 | 127 | 129 | 159 | – | Retention_time [7]: 23.485 min
Cc1nc(C(=O)NCCCCNc2c3c(nc4ccccc24)CCCC3)cc2c1[nH]c1ccccc12 | 39.3 | 268 | 158 | 325 | – | Retention_time [8]: 10.988 min
CC(=O)[C@H]1CC[C@H]2[C@@H]3CCC4=CC(=O)CC[C@]4(C)[C@H]3CC[C@]12C [PROGESTERONE] | – | – | – | – | 4.14 | –
CN1C(C(=O)Nc2ccccn2)=C(O)c2ccccc2S1(=O)=O [PIROXICAM] | – | – | – | – | 1.2 | –
COc1ccc(-c2nc(C(=O)NCCCCCCNc3c4c(nc5ccccc35)CCCC4)cc3c2[nH]c2ccccc23)cc1 | 25.2 | 97.7 | 329 | 149 | – | Retention_time [6]: 5.664 min
COC(=O)c1cc2c(cn1)[nH]c1ccccc12 [BETA-CCM] | 22.1 | 63000 | > 100000 | – | – | –
Cc1nc(C(=O)NCCNc2c3c(nc4ccccc24)CCCC3)cc2c1[nH]c1ccccc12 | 42.4 | 485 | 539 | – | – | Retention_time [8]: 10.74 min
CC1c2[nH]c3ccccc3c2C[C@@H](C(=O)NCCCCCCNc2c3c(nc4ccccc24)CCCC3)N1C(=O)OC(C)(C)C (stereo not given in full) | 42.3 | 389 | 22.3 | 526 | – | Retention_time [9]: 8.219 min
CCc1nc(C(=O)NCCCCCCNc2c3c(nc4ccccc24)CCCC3)cc2c1[nH]c1ccccc12 | 44.6 | 51.7 | 96.9 | 98.2 | 4.97 | Retention_time [7]: 10.991 min
O=C(NCCCCCCNc1c2c(nc3ccccc13)CCCC2)[C@@H]1Cc2c([nH]c3ccccc23)CN1 | 65.8 | 21.6 | 39.8 | 63.2 | 5.6 | Activity [10]: Active; Activity (PC-12): Active; Activity [11]: 73.67%; Retention_time [5]: 7.932 min; inhibition [12]: Active
CC(C)(C)OC(=O)N1Cc2[nH]c3ccccc3c2C[C@H]1C(=O)NCCCCCCNc1c2c(nc3ccccc13)CCCC2 | 52.4 | 141 | 7.5 | 187 | 5.81 | Retention_time [2]: 17.683 min
Cc1nc(C(=O)NCCCCCCCCCCNc2c3c(nc4ccccc24)CCCC3)cc2c1[nH]c1ccccc12 | 38.8 | 783 | 364 | – | – | Retention_time [6]: 7.918 min
Cc1nc(C(=O)NCCCCCCCCNc2c3c(nc4ccccc24)CCCC3)cc2c1[nH]c1ccccc12 | 36.6 | 107 | 245 | 153 | – | Retention_time [9]: 7.963 min
NCCc1ccc(O)c(O)c1 [DOPAMINE] | – | – | – | – | 0.15 | –
CC(C)(C)OC(=O)N[C@@H](Cc1c[nH]c2ccccc12)C(=O)NCCCCCCNc1c2c(nc3ccccc13)CCCC2 | 62.1 | 67.3 | 4.3 | 116 | 5.52 | Retention_time [9]: 4.417 min
Clc1cccc(Cl)c1N=C1NCCN1 [CLONIDINE] | – | – | – | – | 3.8 | –

From ChEMBL document CHEMBL3351298, “Design, synthesis and evaluation of novel tacrine-(β-carboline) hybrids as multifunctional agents for the treatment of Alzheimer's disease” (Bioorg Med Chem, 2014)
